Experimental data taken from ChEMBL document CHEMBL3639083, “6,7-unsaturated-7-carbamoyl substituted morphinan derivative” (2013).

Assays:
[1] = target: Delta-type opioid receptor (Rattus norvegicus, UniProt P33533); assay: (§1) Binding Assay: Binding assay of opioid receptor.
Mu-type opioid receptor = Mu-type opioid receptor (Rattus norvegicus, UniProt P33535); assay: as §1
Sequence of Mu-type opioid receptor (P33535 whole entry): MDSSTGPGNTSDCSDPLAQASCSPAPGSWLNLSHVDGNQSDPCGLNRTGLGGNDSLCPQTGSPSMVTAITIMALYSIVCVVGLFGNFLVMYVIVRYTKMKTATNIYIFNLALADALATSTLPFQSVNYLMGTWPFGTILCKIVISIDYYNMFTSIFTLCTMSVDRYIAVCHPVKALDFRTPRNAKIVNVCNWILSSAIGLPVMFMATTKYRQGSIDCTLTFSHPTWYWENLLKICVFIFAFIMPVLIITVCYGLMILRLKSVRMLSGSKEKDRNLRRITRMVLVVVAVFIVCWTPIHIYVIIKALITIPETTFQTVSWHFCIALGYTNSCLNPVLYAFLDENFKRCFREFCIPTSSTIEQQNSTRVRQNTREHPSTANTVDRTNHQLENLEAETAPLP

Sequence of Delta-type opioid receptor (P33533 whole entry): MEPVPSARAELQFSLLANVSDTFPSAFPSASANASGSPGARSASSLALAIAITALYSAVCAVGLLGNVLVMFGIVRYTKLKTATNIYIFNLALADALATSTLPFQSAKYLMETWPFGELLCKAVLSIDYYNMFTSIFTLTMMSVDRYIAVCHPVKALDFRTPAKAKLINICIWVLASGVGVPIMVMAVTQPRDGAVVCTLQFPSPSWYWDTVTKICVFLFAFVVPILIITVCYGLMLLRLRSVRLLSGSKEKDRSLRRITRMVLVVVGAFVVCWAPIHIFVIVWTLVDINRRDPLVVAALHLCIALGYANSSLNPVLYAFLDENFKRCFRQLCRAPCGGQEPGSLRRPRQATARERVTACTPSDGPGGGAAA

Structure (SMILES) | Ki [1] | Ki (Mu-type opioid receptor)
CC(C)NC(=O)C1=C(NS(=O)(=O)c2ccc(Cl)cc2)[C@@H]2Oc3c(O)ccc4c3[C@@]23CCN(CC2CC2)[C@H](C4)[C@]3(O)C1 | 0.56 nM | 11 nM
COc1ccc(NC(=O)C2=C(O)[C@@H]3Oc4c(O)ccc5c4[C@@]34CCN(CC3CC3)[C@H](C5)[C@]4(O)C2)cn1 | 27.6 nM | 2.29 nM
